This note sets out measurements from US12564640B2, “Protein-antiviral compound conjugates” (priority 2020, dated 2026).

Test [1] has as its system influenza A/H1N1/PR8 virus. The test can be described thus: microbe, parasite or virus in culture. Type of test: cell-based, H1N1 A/Puerto Rico/08/1934 influenza virus. Conditions: for Fold increase over parental antibody: relative to mAb11729 of the same run.
The test system of test [2] is influenza A/H3N2/HK68x31 virus. Description: Antiviral efficacy assay, HK68x31. Type of test: cell-based.
Test [3] has as its system influenza A/H1N1/Cal09 virus. The test can be described thus: Antiviral efficacy assay, Cal09. In kind it is cell-based. Conditions: relative to mAb11729.

`O=C(O)[C@H]1C2CCC(CC2)[C@@H]1Nc1nc(-c2c[nH]c3ncc(F)cc23)ncc1F` [VX-787, reference compound]: the IC50 in test [1] (MDCK London cells, Runs 1-4) was 9.46 nM; in test [2] it was 7.05 nM. For the same molecule, the “Fold increase over parental antibody” value in test [1] worked out at 3.32 fold.

B1: mAb11729: anti-hemagglutinin (anti-HA) monoclonal antibody, HCVR SEQ ID NO: 18, LCVR SEQ ID NO: 26 (antibody, V domains shown)
VH: QVQLVQSGAEVKKSGSSVKVSCKASGGTFSSYAISWVRQAPGQGLEWMGGIIPIFGTPSYAQKFQDRVTITTDESTSTVYMELSSLRSEDTAVYYCARQQPVYQYNMDVWGQGTTVTVSS
VL: DIQMTQSPSSLSASVGDRVTITCRASQGIRNNLGWYQQKPLKAPKRLIYAASSLQSGVPSRFSGSGSGTEFTLTISSLQPEDFATYYCLQYNNYPWTFGQGTKVEIK
For the molecule B1, the “Fold increase over parental antibody” value in test [1] and in test [3] was 1.00 fold throughout.

Broadly, the IC50 is the concentration needed to halve the response being measured. A higher IC50 goes with weaker potency in that assay.
